The text below walks through data of patent publication US12291511B2, “Polymerase inhibitors and related compositions and methods” (Promega Corporation, priority 2018, dated 2025).

Holding throughout (assay type): biochemical
In assay [1] the target is T1, GoTaq® DNA Polymerase (Taq DNA polymerase) (Thermus aquaticus, UniProt P19821).
T1 construct: purchased
As to the kind of experiment: Hot-start PCR of 1.5 kb fragment of the Corynephage omega gene from plasmid DNA, after 22° C. pre-incubation, agarose gel read-out. Conditions: '25 to 150 μM or greater' for the derivatives. As to the method:
When carried out using hot-start conditions, the polymerase (e.g., Taq polymerase) was inhibited at lower temperatures, but activated at the start of amplification when temperatures increased to denature the DNA (e.g., 95° C.); the amplification produced a single product approximately 1.5 kb in size. When carried out using non-hot-start conditions, the DNA polymerase was not inhibited at lower temperatures, and amplification produced a product approximately 400 bp in size (among other secondary products), and the 1.5 kb fragment was transiently present. To test the ability of the thermally-labile small molecule polymerase to inhibit DNA polymerase (e.g., Taq DNA polymerase) activity, the amplification reactions were incubated at 22° C. for 1.5 to 6 hours or longer prior to performing PCR amplification.
The amplifications were set up at room temperature. The thermally-labile small molecule polymerase inhibitor(s) were titrated (concentrations will depend on exact compound, enzyme being inhibited, detergent concentration, and other buffer conditions) into reactions. For these experiments, the following composition were used: 1× GoTaq® Colorless Flexi Buffer, 2.5 mM MgCl2, 200 μM each dNTP, 0.4 μM each primer, 0.025 U/μl GoTaq® DNA Polymerase, 500 pg plasmid DNA and nuclease-free water to bring it to a 25 μl reaction. […]

The target in assay [2] is T2, Taq (Thermus aquaticus, UniProt P19821). As to the kind of experiment: Hot-start PCR of CCR5 gene (500 bp amplicon) with human genomic DNA as template. Conditions: CCR5 target; for 500 bp yield: compared with no hot-start (GoTaq® DNA Polymerase). From the text:
Testing of Human Genomic Templates. FIG. 11 includes a representative image of an agarose gel used to evaluate the CCR5 gene amplification products of various hot-start PCR reactions performed with and without two different polymerase inhibitors (compound #7124 and compound #7261) and using human genomic DNA as a template. The target amplicon is 500 bp, and without the use of hot-start, there is a significant amount of primer dimer. With compound #7124 and compound #7261, the 500 bp yield increased, but primer dimer amounts remained (compare to GoTaq® DNA Polymerase treatment for no hot-start and GoTaq® Hot-Start DNA Polymerase with an antibody-mediated hot-start). Reaction components are provided in Table 2 below; the following cycling methods were used: [(22° C. for 90 min, 94° C. for 2 min) 1 cycle, (92° C. for 30 sec, 68° C. for 2 min) 45 cycles, (72° C. for 5 min) 1 cycle, 4° C. soak].

Assay [3] addresses T2, Taq. The assay is described as follows: Hot-start PCR of Human Dystrophin Alu 7-2 gene (320 bp amplicon) with human genomic DNA as template. Conditions: HD Alu 7-2 target; for secondary products (seen as a smear): at certain concentrations; for 320 bp yield: human genomic DNA, compared with no hot-start. As to the method: FIG. 12 includes a representative image of an agarose gel used to evaluate the Human Dystrophin Alu-72 gene amplification products of various hot-start PCR reactions performed with and without two different polymerase inhibitors (compound #7124 and compound #7261) and using human genomic DNA as a template. The target amplicon is 320 bp, and without hot-start, there is less yield. […] Reaction components are provided in Table 2 below; the following cycling methods were used: [(22° C. for 90 min, 94° C. for 2 min) 1 cycle, (94° C. for 50 sec, 59° C. for 50 sec, 68° C. for 2 min) 42 cycles, 4° C. soak].

In another assay the target is Taq DNA Polymerase (Thermus aquaticus, UniProt P19821). As to the kind of experiment: Activated calf thymus DNA polymerase activity assay (radioactive incorporation) at 22° C. As to the method: Activity assays were used to test the concentrations of small molecule polymerase inhibitors in specific reaction conditions to determine inhibition efficacy. Corresponding IC50 values were also determined for the compounds. Activity assays were also used to test the temperatures or temperature ranges at which the reactions are inhibited by the compounds.
Chain of Taq DNA Polymerase (P19821 whole entry): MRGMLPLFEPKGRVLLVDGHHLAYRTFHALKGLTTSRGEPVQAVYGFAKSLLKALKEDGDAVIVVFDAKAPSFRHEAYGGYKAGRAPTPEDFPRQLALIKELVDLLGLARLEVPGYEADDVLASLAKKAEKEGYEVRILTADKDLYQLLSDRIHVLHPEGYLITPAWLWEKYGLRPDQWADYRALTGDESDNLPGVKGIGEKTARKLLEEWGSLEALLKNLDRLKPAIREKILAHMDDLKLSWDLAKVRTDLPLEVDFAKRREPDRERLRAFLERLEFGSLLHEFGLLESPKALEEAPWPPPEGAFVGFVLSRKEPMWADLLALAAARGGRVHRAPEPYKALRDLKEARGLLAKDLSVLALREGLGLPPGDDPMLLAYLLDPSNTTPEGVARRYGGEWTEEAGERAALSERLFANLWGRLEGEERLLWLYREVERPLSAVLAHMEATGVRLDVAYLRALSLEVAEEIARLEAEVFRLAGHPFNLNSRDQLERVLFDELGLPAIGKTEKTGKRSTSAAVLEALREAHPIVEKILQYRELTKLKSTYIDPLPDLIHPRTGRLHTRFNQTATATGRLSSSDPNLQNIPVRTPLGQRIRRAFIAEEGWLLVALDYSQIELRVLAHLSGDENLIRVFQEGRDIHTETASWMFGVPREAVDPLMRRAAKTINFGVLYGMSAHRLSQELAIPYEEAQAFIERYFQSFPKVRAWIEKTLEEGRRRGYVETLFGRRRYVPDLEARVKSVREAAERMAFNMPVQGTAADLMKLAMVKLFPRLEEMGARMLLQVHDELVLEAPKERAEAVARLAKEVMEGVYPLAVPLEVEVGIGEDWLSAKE
Exemplary activity assays can be carried out according to a variety of methods. For example, a DNA polymerase activity assay monitoring radioactive incorporation where “activated” calf thymus or salmon sperm DNA is used as the DNA substrate. Along with the DNA substrate, the reactions minimally contain a buffer (e.g., GoTaq® buffer), magnesium, dNTPs, and polymerase. Reactions were stopped, and DNA was precipitated by ice-cold TCA (tricholoracetic acid), incubated on ice for at least 10 minutes, filtered using GF/C filters, and radioactive incorporation in precipitable DNA (on filter) measured by scintillation counting. (See, e.g., Apospian & Kornberg. (1962) JBC 237:519-525.; Chien et al. (1976) J. Bact. 127:1550-1557.)
FIG. 7 includes a representation of a polymerase activity assay carried out at 22° C., where an inhibitor (i.e. compound #7124) is titrated. FIG. 7 is an example of an activity assay where IC50 can be determined. […] Activated calf thymus DNA activity assay was used in these experiments. […]

T2 sequence (P19821 whole entry): as above
T1 sequence (P19821 whole entry): as above

As to `CCCCCCCCCCCCC(OC(=O)NCCCS(=O)(=O)[O-])c1ccc(Cl)o1.[Na+]` (centres unmarked) [compound #7261, Sodium 3-((((1-(5-chlorofuran-2-yl)tridecyl)oxy)carbonyl)amino)propane-1-sulfonate], the “potency of DNA polymerase inhibitors (summary comparison of #7261 with derivatives)” value in assay [1] is given as “about 75 μM”. On Taq [2], the primer dimer amounts result is listed as “remained” and the 500 bp yield entry is listed as “increased”. For the same compound, on Taq [3], the “secondary products (seen as a smear)” value is listed as “dramatically decreased” and the 320 bp yield result is “increased”.

Take `CCCCCCCCCCCCC(OC(=O)NCCCS(=O)(=O)[O-])c1ccc(OC)cc1.[Na+]` (centres unmarked) [compound #7124, Sodium 3-((((1-(4-methoxyphenyl)tridecyl)oxy)carbonyl)amino)propane-1-sulfonate]: on Taq [2], the primer dimer amounts result is “remained” and the 500 bp yield result is given as “increased”. Further, on Taq [3], the “secondary products (seen as a smear)” value is “dramatically decreased” and the 320 bp yield result is given as “increased”. The “inhibition ultimately reached as concentration increased” value on Taq DNA Polymerase (high inhibitor concentration) is recorded as 100%. On Taq DNA Polymerase (titration of inhibitor, calculated from graph (FIG. 7)), the IC50 is approximately 150 µM.
